From patent publication US10899733B2, “Inhibitors of PARPs that catalyze mono-ADP-ribosylation” (OREGON HEALTH & SCIENCE UNIVERSITY, priority 2017, dated 2021)
Read-outs that look alike come from different tables or passages of the source.

Legend:
Format in all cases: biochemical
PARP15cat = target: T1, PARP15cat (Homo sapiens, UniProt Q460N3); experiment: PARP panel: ADP-ribosylation of SRPK2 using 6-a-NAD+
T1 construct: PARP15cat
T1 sequence (Q460N3 482-678 limits assumed): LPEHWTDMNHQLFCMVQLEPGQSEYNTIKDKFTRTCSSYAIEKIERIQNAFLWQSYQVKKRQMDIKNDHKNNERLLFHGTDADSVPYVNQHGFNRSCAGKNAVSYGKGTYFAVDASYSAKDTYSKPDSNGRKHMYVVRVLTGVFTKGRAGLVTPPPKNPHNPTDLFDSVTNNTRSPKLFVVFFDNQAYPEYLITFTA
Text: (§1) We screened 22 against poly-ADPr PARPs (PARPs 1, 2, and PARP5b) and mono-ADPr PARPs (PARPs 3, 4, 10, 11, 14, and 15) in an assay that measures ADP-ribosylation of SRPK2 using an N^6-alkyne tagged NAD^+ (6-a-NAD^+), a clickable NAD^+ analogue.{Jiang et al., 2010, J. Am. Chem. Soc. […] The observed selectivity is most likely due to the differences in the last position of the H-Y-E catalytic triad of these enzymes versus the H-Y-I triad found in PARP10. {Hottiger et al., 2010, Trends Biochem. Sci. 35, pp. 208-219} The glutamate (E988 in PARP1) in PARPs 1-4 and PARP 5b most likely clash with the pyridiny-4-yl group at the 6-position of 22, while PARP10 contains an isoleucine (1978) at this position that can accommodate this group (FIG. 1B).

PARP2 = PARP2 (Homo sapiens, UniProt Q9UGN5); experiment: as above
Text: as §1

PARP4brct-cat [1] = experiment: as above; conditions: PARP4brct-cat over PARP10cat
Text: as §1

PARP1 = PARP1 (Homo sapiens, UniProt P09874); experiment: as above
Text: as §1

PARP5bcat = target: T2, PARP5bcat (Homo sapiens, UniProt Q9H2K2); experiment: as above
T2 construct: PARP5bcat
Text: as §1

PARP14cat-wwe [2] = target: T3, PARP14cat-wwe (Homo sapiens, UniProt Q460N5); experiment: as above; conditions: 6-a-NAD+
T3 construct: PARP14cat-wwe
T3 sequence (Q460N5 1523-1801): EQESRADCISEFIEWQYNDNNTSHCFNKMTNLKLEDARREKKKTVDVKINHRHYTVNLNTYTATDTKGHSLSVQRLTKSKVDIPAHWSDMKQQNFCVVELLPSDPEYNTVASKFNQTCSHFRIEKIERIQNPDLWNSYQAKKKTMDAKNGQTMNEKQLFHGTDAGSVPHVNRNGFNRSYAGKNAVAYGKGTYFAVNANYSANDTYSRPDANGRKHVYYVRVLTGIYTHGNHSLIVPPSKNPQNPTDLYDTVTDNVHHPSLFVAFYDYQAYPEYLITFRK
Text: as §1

PARP14cat-wwe [3] = experiment: as above; conditions: PARP14cat-wwe over PARP10cat
Text: as §1

PARP10cat = target: T4, PARP10cat (Homo sapiens, UniProt Q53GL7); experiment: as above
T4 sequence (Q53GL7 806-1025 limits assumed): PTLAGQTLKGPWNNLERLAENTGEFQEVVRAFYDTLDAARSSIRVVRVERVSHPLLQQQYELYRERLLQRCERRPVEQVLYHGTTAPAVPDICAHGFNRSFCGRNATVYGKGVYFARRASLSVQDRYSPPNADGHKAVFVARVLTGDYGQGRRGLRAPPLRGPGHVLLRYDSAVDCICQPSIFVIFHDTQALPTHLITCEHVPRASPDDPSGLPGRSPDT
Text: as §1

PARP11 [4] = target: T5, PARP11 (Homo sapiens, UniProt Q9NR21); experiment: as above
T5 sequence (Q9NR21 1-338): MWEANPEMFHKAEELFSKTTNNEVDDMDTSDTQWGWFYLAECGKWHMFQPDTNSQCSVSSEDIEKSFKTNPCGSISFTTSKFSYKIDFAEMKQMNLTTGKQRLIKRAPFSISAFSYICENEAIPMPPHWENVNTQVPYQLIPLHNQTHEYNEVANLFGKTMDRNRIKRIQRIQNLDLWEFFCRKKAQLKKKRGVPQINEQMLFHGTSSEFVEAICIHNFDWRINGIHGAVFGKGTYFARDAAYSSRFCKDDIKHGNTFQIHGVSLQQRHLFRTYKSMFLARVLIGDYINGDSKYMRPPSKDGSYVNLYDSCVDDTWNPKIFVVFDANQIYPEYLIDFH
Text: as §1

PARP4brct-cat [5] = target: T6, PARP4brct-cat (Homo sapiens, UniProt Q9UKK3); experiment: as above; conditions: up to 100 μM
T6 construct: PARP4brct-cat
Text: as §1

PARP3 = target: T7, PARP3 (Homo sapiens, UniProt Q9Y6F1); experiment: as above
T7 sequence (Q9Y6F1 1-533): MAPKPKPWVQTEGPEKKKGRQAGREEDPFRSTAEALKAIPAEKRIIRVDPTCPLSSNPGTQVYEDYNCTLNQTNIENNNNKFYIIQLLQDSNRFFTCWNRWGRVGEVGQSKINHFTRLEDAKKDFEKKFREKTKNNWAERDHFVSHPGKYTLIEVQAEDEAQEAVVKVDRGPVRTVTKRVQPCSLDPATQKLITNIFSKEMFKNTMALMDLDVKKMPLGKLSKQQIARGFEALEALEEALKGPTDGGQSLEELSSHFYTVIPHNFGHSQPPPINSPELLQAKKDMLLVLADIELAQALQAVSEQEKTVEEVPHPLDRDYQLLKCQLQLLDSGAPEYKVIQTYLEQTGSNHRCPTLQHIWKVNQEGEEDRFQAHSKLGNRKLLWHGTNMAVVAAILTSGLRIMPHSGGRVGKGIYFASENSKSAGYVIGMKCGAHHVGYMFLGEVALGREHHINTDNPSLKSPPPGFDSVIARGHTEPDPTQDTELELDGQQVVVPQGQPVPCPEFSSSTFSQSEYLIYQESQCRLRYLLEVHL
Text: as §1

PARP11 [6] = target: T5, PARP11; experiment: Inhibition of PARP11-mediated ADP-ribosylation of SRPK2 using NAD+ (100 μM); conditions: ADP-ribosylation of SRPK2, NAD+ 100 μM

Sequence of PARP1 (P09874 whole entry): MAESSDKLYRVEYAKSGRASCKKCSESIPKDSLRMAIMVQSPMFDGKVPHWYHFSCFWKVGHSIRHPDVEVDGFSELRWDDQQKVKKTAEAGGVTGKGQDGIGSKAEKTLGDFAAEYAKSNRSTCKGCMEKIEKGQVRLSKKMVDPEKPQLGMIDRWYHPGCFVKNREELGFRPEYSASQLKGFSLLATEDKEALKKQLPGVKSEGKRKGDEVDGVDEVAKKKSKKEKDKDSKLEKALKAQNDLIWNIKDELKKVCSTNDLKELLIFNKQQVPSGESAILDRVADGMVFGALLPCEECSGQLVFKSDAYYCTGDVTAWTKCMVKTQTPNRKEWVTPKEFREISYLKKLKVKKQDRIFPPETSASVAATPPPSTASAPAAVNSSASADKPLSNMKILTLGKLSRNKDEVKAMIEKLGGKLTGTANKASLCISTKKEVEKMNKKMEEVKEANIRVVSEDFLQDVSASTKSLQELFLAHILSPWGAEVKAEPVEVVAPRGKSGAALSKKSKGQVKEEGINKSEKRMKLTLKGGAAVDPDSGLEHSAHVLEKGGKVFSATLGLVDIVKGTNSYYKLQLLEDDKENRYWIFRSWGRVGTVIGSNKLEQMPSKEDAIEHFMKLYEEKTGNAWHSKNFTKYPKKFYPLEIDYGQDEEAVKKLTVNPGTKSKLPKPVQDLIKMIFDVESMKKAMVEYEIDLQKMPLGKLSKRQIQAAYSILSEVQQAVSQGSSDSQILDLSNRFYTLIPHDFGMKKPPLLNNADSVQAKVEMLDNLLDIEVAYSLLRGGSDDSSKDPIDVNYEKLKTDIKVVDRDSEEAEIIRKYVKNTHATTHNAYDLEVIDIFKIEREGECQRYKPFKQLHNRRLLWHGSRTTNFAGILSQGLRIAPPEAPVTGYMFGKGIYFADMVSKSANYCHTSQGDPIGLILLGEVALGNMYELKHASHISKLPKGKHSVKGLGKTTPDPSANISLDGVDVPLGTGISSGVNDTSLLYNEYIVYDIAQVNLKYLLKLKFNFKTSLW
T2 sequence (Q9H2K2 959-1164): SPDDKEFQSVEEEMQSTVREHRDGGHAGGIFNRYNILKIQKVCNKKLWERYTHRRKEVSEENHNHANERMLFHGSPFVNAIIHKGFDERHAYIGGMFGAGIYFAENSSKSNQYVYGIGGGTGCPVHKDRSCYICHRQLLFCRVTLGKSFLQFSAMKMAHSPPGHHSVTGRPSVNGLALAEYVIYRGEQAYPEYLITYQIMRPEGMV
Sequence of PARP2 (Q9UGN5 whole entry): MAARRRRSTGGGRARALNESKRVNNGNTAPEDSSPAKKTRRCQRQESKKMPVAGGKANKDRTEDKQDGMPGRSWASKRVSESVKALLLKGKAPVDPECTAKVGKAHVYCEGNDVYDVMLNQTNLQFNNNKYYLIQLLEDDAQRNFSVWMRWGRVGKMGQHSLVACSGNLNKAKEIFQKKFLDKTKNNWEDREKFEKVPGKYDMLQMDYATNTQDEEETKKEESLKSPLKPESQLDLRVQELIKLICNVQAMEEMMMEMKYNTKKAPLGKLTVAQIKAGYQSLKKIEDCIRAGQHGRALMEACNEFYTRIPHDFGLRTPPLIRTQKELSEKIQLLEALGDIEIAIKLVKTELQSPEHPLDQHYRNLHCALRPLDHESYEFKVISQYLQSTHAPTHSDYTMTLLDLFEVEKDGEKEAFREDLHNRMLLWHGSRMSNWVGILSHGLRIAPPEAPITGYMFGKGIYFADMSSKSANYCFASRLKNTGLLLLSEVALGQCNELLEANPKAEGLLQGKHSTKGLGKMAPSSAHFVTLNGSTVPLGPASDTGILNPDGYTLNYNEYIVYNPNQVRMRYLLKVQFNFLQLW
T6 sequence (Q9UKK3 whole entry): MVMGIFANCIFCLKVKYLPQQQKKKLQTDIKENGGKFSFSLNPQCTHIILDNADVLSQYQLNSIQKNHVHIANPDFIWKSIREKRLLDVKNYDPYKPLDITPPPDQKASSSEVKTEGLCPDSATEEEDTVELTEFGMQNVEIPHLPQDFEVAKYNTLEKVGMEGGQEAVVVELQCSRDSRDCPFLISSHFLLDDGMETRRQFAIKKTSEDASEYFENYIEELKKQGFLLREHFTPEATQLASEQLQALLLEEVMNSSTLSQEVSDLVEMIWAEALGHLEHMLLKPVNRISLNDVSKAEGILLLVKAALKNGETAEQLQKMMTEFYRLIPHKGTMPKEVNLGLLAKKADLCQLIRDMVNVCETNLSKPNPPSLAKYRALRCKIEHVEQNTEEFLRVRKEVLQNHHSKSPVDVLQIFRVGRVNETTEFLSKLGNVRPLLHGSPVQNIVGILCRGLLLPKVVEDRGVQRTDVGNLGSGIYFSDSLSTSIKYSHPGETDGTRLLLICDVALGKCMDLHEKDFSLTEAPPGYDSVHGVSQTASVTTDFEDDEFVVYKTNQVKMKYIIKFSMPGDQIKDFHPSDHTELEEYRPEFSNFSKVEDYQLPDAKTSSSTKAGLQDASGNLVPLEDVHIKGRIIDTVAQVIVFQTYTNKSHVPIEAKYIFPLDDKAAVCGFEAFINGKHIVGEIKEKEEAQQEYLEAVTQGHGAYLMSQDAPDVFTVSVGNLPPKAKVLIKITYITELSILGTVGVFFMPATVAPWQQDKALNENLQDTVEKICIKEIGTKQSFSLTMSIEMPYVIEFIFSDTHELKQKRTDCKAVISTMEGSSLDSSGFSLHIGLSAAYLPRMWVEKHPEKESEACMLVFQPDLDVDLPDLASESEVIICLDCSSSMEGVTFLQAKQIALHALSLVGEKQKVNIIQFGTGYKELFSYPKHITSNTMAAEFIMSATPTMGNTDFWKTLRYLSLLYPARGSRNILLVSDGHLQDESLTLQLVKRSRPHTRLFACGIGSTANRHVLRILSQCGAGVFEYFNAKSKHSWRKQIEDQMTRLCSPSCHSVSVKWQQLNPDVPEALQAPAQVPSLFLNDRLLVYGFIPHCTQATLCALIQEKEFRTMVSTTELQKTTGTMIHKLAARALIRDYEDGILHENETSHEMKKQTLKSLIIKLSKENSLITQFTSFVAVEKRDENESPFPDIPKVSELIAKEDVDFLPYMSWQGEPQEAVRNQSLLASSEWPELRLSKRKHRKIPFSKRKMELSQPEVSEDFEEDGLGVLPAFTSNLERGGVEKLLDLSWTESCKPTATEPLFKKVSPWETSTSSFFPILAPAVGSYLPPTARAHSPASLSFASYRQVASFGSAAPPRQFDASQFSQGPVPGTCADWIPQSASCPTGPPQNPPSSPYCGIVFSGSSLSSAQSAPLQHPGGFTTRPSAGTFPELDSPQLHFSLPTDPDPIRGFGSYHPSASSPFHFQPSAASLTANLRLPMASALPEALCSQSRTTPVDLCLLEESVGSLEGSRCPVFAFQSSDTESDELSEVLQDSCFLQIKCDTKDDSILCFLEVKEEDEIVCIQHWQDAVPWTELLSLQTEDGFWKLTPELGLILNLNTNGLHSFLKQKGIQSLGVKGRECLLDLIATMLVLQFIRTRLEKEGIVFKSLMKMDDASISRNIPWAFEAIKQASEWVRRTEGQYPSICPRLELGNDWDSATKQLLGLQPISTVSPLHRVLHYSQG

Cc1c(-c2ccnc(C(F)(F)F)c2)ccc2c1CCNC2=O [Compound 22, 5-methyl-6-(2-(trifluoromethyl)pyridin-4-yl)-3,4-dihydroisoquinolin-1(2H)-one]
IC50 (PARP15cat; 6-a-NAD+): 62.9 µM
PARP15cat pIC50 ± S.E.M. (PARP15cat; 6-a-NAD+): 4.20 ± 0.05
PARP/PARP10 (PARP15cat; PARP15cat over PARP10cat): 23
IC50 (PARP2; 6-a-NAD+): > 100 µM
PARP/PARP10 (PARP2; PARP2 over PARP10cat): >37
inhibition of PARP2 (PARP2; up to 100 μM): does not inhibit
PARP/PARP10 (PARP4brct-cat [1]): >37
IC50 (PARP1; 6-a-NAD+): > 100 µM
PARP/PARP10 (PARP1; PARP1 over PARP10cat): >>37
inhibition of PARP1 (PARP1; up to 100 μM): does not inhibit
IC50 (PARP5bcat; 6-a-NAD+): > 100 µM
PARP/PARP10 (PARP5bcat; PARP5bcat over PARP10cat): >>37
inhibition of PARP 5b (PARP5bcat; up to 100 μM): does not inhibit
IC50 (PARP14cat-wwe [2]): 60.5 µM
PARP14cat-wwe pIC50 ± S.E.M. (PARP14cat-wwe [2]): 4.22 ± 0.04
PARP/PARP10 (PARP14cat-wwe [3]): 22
selectivity for PARP10 over PARPs 1-4 and PARP 5b (PARP10cat; 6-a-NAD+): greater than 37 fold
IC50 (PARP10cat; 6-a-NAD+, read-out: PARP10cat IC50): 2700 nM
IC50 (PARP10cat; 6-a-NAD+, read-out: PARP10cat pIC50 ± S.E.M. (converted)): 2750 nM
PARP/PARP10 (PARP10cat; PARP10cat over PARP10cat): 1
IC50 (PARP11 [4]; 6-a-NAD+): 62.9 µM
PARP/PARP10 (PARP11 [4]; PARP11 over PARP10cat): 23
inhibition of PARP4 (PARP4brct-cat [5]): does not inhibit
IC50 (PARP3; 6-a-NAD+): > 100 µM
PARP/PARP10 (PARP3; PARP3 over PARP10cat): >>37
inhibition of PARP3 (PARP3; up to 100 μM): does not inhibit
IC50 (PARP11 [6]): 51.7 µM
PARP11 pIC50 ± S.E.M. (PARP11 [6]): 4.29 ± 0.04
